The values that follow come from ChEMBL document CHEMBL4610012, “Identification of vibsanin A analog as a novel HSP90 inhibitor” (Bioorg Med Chem, 2020).

The term IC50 denotes the concentration at which inhibition is half-maximal.

SMILES strings stand for the structures. Active and inactive are the calls of the source. The rule behind the calls is not given here. Where only a bound is given, the exact number is not on record here.

For one data set, the system named is HT-29. As to the kind of experiment: Antiproliferative activity against human HT-29 cells assessed as reduction in cell viability incubated for 72 hrs by MTT assay. Type of data set: functional, cell-based. The following applies: HT-29, 72 h. For orientation: Tetrazolium dyes change colour on reduction, which living cells bring about.
The next data set has as its system PC-3. In words: Antiproliferative activity against human PC3 cells assessed as reduction in cell viability incubated for 72 hrs by MTT assay. The format is functional, cell-based. The following applies: PC-3, 72 h.
The test system of a further data set is NEC8. In words: Antiproliferative activity against human NEC8 cells assessed as reduction in cell viability incubated for 72 hrs by MTT assay. The format is functional, cell-based. The following applies: NEC8, 72 h.
Data set [1] in a line: Antiproliferative activity against human ES2 cells assessed as reduction in cell viability incubated for 72 hrs by MTT assay. The format is functional, cell-based. The following applies: ES-2, 72 h.
Another data set deals with A-431. As to the kind of experiment: Antiproliferative activity against human A431 cells assessed as reduction in cell viability incubated for 72 hrs by MTT assay. Type of data set: functional, cell-based. The following applies: A-431, 72 h.
In data set [2] the test system is HT-1080. In words: Effect on Akt level in human HT1080 cells assessed as Akt level at 10 uM incubated for 24 hrs by immunoblot assay (reference value: 1). The following applies: ht-1080, 24 h. The format is cell-based. In general terms: A western blot detects proteins with antibodies after separation by electrophoresis.
The target in data set [3] is T1, Serine/threonine-protein kinase AKT (Homo sapiens) (UniProt P31751+Q9Y243+P31749). As to the kind of experiment: Inhibition of Akt signaling pathway in human HT1080 cells assessed as fold change in phosphorylated 70S6K level at 10 uM incubated for 24 hrs by immunoblot assay (reference value: 1). The format is cell-based. The following applies: HT-1080.
A further data set concerns A549. As to the kind of experiment: Antiproliferative activity against human A549 cells assessed as reduction in cell viability incubated for 72 hrs by MTT assay. The format is functional, cell-based. The following applies: A549, 72 h.
For data set [4], the system named is MCF7. As to the kind of experiment: Antiproliferative activity against human MCF7 cells assessed as reduction in cell viability incubated for 72 hrs by MTT assay. The format is functional, cell-based. The following applies: MCF7, 72 h.
In another data set the test system is SK-MEL-28. As to the kind of experiment: Antiproliferative activity against human SK-MEL-28 cells assessed as reduction in cell viability incubated for 72 hrs by MTT assay. The following applies: SK-MEL-28, 72 h. Type of data set: functional, cell-based.
The target of data set [5] is T1, Serine/threonine-protein kinase AKT (Homo sapiens). In words: Inhibition of Akt signaling pathway in human HT1080 cells assessed as fold change in phosphorylated Akt level at 10 uM incubated for 24 hrs by immunoblot assay (reference value: 1). The format is cell-based. The following applies: HT-1080.
For another data set, the system named is PANC-1. In words: Antiproliferative activity against human PANC1 cells assessed as reduction in cell viability incubated for 72 hrs by MTT assay. Type of data set: functional, cell-based. The following applies: PANC-1, 72 h.
Data set [6] concerns HT-1080. As to the kind of experiment: Antiproliferative activity against human HT1080 cells assessed as reduction in cell viability incubated for 72 hrs by MTT assay. Type of data set: functional, cell-based. The following applies: HT-1080, 72 h.
Data set [7] concerns HT-1080. In words: Induction of vacuole formation in human HT1080 cells at 10 uM incubated for 24 hrs. The format is functional, cell-based.
Data set [8] addresses T1, Serine/threonine-protein kinase AKT (Homo sapiens). As to the kind of experiment: Inhibition of Akt signaling pathway in human HT1080 cells assessed as fold change in phosphorylated Akt level at 1 uM incubated for 12 hrs by immunoblot assay (reference value: 1). The format is cell-based. The following applies: HT-1080.
Data set [9] addresses Heat shock protein HSP90 (Homo sapiens) (UniProt P07900+P08238). As to the kind of experiment: Inhibition of HSP90 chaperone activity in human HeLa cells assessed as reduction in denatured luciferase refolding at 100 uM incubated for 60 mins by luciferase refolding assay. Type of data set: cell-based.
Data set [10] deals with T1, Serine/threonine-protein kinase AKT (Homo sapiens). As to the kind of experiment: Inhibition of Akt signaling pathway in human HT1080 cells assessed as reduction in phosphorylated Akt level incubated for 12 hrs by immunoblot assay. Type of data set: cell-based. The following applies: HT-1080.
Data set [11] relates to MCF7. In words: Effect on HER2 mRNA expression in human MCF7 cells at 10 uM incubated for 24 hrs by qRT-PCR analysis. The format is functional, cell-based.
Data set [12] has as its target T1, Serine/threonine-protein kinase AKT (Homo sapiens). As to the kind of experiment: Inhibition of Akt signaling pathway in human HT1080 cells assessed as fold change in phosphorylated Akt level at 0.01 uM incubated for 12 hrs by immunoblot assay (reference value: 1). Type of data set: cell-based. The following applies: HT-1080.
For data set [13] the target is unchanged. As to the kind of experiment: Inhibition of Akt signaling pathway in human HT1080 cells assessed as fold change in phosphorylated Akt level at 0.1 uM incubated for 12 hrs by immunoblot assay (reference value: 1). The format is cell-based. The following applies: HT-1080.
For data set [14], the target named is Luciferin 4-monooxygenase (Photinus pyralis) (UniProt P08659). In words: Effect on firefly luciferase activity at 100 uM incubated for 60 mins by luciferase assay system.
In data set [15] the test system is MCF7. As to the kind of experiment: Effect on HSP90 level in human MCF7 cells at 10 uM incubated for 24 hrs by immunoblotting assay (reference value: 1). Type of data set: ADME, cell-based. The following applies: mcf7, 24 h.
For data set [16], the target named is Receptor tyrosine-protein kinase erbB-2 (Homo sapiens) (UniProt P04626). As to the kind of experiment: Induction of HER2 destabilization in human MCF7 cells assessed as half life at 10 uM measured up to 24 hrs by immunoblotting assay (Rvb > 24 hrs). The format is cell-based.
Data set [17] has as its target T1, Serine/threonine-protein kinase AKT (Homo sapiens). In words: Inhibition of Akt signaling pathway in human HT1080 cells assessed as fold change in phosphorylated Akt level at 10 uM incubated for 12 hrs by immunoblot assay (reference value: 1). Type of data set: cell-based. The following applies: HT-1080.

T1 sequence (P31749 whole entry, looked up): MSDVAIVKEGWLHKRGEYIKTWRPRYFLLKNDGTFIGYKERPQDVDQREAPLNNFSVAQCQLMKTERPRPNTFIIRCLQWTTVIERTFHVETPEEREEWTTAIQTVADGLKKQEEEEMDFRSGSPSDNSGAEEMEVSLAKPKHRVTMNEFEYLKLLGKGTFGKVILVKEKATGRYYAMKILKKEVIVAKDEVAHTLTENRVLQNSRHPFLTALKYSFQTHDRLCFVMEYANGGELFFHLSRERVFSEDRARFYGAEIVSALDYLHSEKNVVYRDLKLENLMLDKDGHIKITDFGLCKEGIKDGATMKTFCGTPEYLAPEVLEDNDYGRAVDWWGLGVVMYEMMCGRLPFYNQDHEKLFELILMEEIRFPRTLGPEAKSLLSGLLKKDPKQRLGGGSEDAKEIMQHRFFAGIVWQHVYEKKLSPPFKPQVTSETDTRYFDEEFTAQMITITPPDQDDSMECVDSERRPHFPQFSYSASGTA
T1 sequence (P31751 whole entry, looked up): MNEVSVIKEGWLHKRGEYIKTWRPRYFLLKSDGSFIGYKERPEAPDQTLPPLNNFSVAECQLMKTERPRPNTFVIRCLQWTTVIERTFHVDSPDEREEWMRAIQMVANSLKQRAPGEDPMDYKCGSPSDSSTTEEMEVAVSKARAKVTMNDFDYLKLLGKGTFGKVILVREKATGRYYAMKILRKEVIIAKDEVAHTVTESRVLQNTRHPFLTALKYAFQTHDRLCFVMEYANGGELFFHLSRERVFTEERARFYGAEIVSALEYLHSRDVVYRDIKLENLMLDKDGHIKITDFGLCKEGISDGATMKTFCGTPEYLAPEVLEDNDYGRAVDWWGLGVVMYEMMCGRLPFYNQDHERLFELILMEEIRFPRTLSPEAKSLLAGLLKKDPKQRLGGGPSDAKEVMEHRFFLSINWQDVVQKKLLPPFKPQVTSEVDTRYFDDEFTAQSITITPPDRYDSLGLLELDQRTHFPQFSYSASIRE
T1 sequence (Q9Y243 whole entry, looked up): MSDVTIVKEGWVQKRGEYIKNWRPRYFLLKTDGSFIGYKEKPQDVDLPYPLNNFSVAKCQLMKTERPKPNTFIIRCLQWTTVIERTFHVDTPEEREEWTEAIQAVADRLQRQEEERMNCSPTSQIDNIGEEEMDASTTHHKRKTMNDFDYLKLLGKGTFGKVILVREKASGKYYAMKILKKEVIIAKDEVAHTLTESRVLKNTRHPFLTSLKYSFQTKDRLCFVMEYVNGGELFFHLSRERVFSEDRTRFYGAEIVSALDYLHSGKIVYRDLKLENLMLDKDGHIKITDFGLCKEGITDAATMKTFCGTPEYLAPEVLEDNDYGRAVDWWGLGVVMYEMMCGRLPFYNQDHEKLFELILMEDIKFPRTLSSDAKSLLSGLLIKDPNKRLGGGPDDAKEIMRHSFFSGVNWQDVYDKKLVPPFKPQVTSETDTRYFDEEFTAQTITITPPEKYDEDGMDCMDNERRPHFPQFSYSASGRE
Receptor tyrosine-protein kinase erbB-2 (Homo sapiens), sequence (P04626 whole entry): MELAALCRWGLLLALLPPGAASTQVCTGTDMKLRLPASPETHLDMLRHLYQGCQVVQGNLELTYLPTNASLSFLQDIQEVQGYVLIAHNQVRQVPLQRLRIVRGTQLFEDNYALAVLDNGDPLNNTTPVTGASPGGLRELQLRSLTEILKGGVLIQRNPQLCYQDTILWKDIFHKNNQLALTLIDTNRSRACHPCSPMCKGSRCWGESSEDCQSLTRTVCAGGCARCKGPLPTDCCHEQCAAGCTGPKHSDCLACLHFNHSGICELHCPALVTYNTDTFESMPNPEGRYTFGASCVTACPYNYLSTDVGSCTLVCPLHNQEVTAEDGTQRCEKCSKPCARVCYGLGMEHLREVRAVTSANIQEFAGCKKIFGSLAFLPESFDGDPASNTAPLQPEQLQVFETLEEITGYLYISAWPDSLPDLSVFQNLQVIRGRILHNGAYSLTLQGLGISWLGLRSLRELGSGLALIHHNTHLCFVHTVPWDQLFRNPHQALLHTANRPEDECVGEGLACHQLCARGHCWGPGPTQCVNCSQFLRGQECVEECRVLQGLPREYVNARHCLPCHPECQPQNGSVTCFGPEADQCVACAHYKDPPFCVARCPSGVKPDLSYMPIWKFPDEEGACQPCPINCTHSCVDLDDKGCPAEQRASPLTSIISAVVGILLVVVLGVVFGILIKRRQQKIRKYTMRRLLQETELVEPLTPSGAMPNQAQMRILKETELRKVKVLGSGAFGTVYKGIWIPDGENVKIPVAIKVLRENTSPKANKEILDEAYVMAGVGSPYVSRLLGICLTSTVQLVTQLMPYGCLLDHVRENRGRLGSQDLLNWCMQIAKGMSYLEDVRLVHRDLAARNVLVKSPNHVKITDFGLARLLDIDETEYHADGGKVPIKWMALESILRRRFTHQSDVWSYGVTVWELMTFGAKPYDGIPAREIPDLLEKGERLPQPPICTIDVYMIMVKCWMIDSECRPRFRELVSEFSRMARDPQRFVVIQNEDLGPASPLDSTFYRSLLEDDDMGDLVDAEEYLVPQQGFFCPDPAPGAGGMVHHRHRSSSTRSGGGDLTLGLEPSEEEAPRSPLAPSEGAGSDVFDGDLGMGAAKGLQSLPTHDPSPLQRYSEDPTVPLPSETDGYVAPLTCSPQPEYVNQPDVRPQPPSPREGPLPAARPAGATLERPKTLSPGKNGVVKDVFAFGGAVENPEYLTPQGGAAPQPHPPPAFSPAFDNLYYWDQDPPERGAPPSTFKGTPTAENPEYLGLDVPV
Luciferin 4-monooxygenase (Photinus pyralis), sequence (P08659 whole entry): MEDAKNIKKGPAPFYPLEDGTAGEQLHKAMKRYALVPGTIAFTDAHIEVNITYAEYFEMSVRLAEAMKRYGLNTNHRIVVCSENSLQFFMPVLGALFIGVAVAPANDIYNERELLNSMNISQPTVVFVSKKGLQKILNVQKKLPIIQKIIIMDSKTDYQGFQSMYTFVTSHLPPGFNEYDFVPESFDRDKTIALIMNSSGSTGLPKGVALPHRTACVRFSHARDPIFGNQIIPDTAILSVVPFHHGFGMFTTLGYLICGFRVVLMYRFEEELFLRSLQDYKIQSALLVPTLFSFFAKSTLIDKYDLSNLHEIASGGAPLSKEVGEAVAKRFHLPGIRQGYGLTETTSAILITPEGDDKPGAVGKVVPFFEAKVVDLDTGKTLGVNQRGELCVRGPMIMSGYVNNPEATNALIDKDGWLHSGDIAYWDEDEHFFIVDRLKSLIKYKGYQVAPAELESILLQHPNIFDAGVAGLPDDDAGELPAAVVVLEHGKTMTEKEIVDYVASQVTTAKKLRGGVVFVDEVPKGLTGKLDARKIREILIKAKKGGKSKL

Consider `C=C1CC[C@H]2O[C@@]2(C)[C@H](OC(=O)C=C(C)C)/C=C/[C@@](C)(CCC=C(C)C)C[C@H]1O`, for which the IC50 in the data set with HT-29 is more than 20 µM; in the data set on PC-3 it was more than 20 µM; with NEC8, 11 µM; in data set [1], more than 20 µM; with A-431, more than 20 µM; with A549, more than 20 µM. Besides, the IC50 in the data set on MCF7 [4], in the data set with SK-MEL-28, with PANC-1 and in the data set with HT-1080 [6] was more than 20 µM in each case. The “fold change (FC)” value in the data set with HT-1080 [2] was 0.98; in data set [3], 1.1; in [5], 0.95. Also, the result in the data set with HT-1080 [7] was inactive.

For the compound `C=C1CC[C@H]2O[C@@]2(C)[C@H](OC(=O)C=C(C)C)/C=C/[C@@](C)(CCC=C(C)C)CC1=O`, the IC50 was 2 µM in the data set on HT-29; 4.3 µM in the data set on PC-3; 3 µM with NEC8; 4.3 µM in [1]; 0.89 µM with A-431; 4.4 µM in the data set on A549. Moreover, the IC50 in the data set with MCF7 [4] came out at 3.5 µM; with SK-MEL-28, 0.97 µM; in the data set on PANC-1, 3.5 µM; in the data set with HT-1080 [6], 1.2 µM. Also, the fold change (FC) in [8] was 0.63; in the data set on HT-1080 [2], 0.8; in [3], 0.08; in [12], 0.99; in data set [13], 0.8; in the data set on MCF7 [15], 0.98. Moreover, the fold change (FC) was 0.11 in data set [5] and 0.38 in data set [17]. The inhibition result in [9] is “Active”. In data set [10], the inhibition result is “Dose-dependent effect”. The outcome (in the data set on MCF7 [11]; in data set [14]) was inactive. Also, the T1/2 in [16] came to 15 h. Also, the outcome with HT-1080 [7] was Active.

Consider `CC(C)=CCC[C@]1(C)/C=C/[C@@H](OC(=O)C=C(C)C)[C@]2(C)O[C@@H]2CC/C(C=O)=C\C1`, for which the concentration for half-maximal inhibition (IC50) in the data set on HT-29 was 7.8 µM; with PC-3 it was more than 20 µM; in the data set with NEC8, 12 µM; in data set [1] it was 7.5 µM; in the data set with A-431, 13 µM; in the data set on A549, 11 µM. Besides, the IC50 in the data set on MCF7 [4] was 12 µM; in the data set with SK-MEL-28, more than 20 µM; in the data set with PANC-1, 2.7 µM; in the data set on HT-1080 [6], 18 µM. For the same compound, the “fold change (FC)” value was 0.85 in the data set with HT-1080 [2], 1.11 in [3] and 1.05 in [5]. For the same compound, the outcome with HT-1080 [7] was inactive.

For `COC1=C2C[C@@H](C)C[C@H](OC)[C@H](O)[C@@H](C)/C=C(\C)[C@H](OC(N)=O)[C@@H](OC)/C=C\C=C(/C)C(=O)NC(=CC1=O)C2=O` [GELDANAMYCIN], in the data set with MCF7 [11], the result was inactive. In addition, in the data set on MCF7 [15], the “fold change (FC)” value is given as 1.01.

Regarding `C=C(I)CC[C@H]1O[C@@]1(C)[C@@H](/C=C/[C@](C)(CC=O)CCC=C(C)C)OC(=O)C=C(C)C`, the IC50 in the data set with HT-29 is more than 20 µM; in the data set on PC-3, more than 20 µM; with NEC8, 11 µM; in [1], more than 20 µM; in the data set with A-431, 20 µM; in the data set with A549 it was more than 20 µM. For the same compound, the IC50 in the data set on MCF7 [4] was more than 20 µM; with SK-MEL-28, more than 20 µM; with PANC-1 it was 5.1 µM; with HT-1080 [6], 18 µM. The “fold change (FC)” value in the data set with HT-1080 [2] was determined as 0.92; in data set [3] it was 1.15; in data set [5], 0.91. Moreover, the outcome in the data set with HT-1080 [7] was inactive.

For the compound `CC(C)=CCC[C@]1(C)/C=C/[C@@H](OC(=O)C=C(C)C)[C@]2(C)O[C@@H]2CC/C(CO)=C\C1`, the 50% inhibitory concentration (IC50) is 6.8 µM in the data set with HT-29; more than 20 µM in the data set with PC-3; 8.4 µM in the data set on NEC8; 2.9 µM in data set [1]; 16 µM with A-431; 8.3 µM with A549. Further, the half-inhibitory concentration (IC50) was 15 µM in the data set on MCF7 [4], more than 20 µM in the data set on SK-MEL-28, 0.025 µM with PANC-1 and more than 20 µM in the data set with HT-1080 [6]. In addition, the “fold change (FC)” value in the data set on HT-1080 [2] came to 1.08; in data set [3] it was 1.2; in data set [5], 0.98. For the same compound, in the data set on HT-1080 [7], the outcome was inactive.
